Source: article PMC12856293 (The Journal of Biological Chemistry, 2025)

Tests used:
TrzSMsmeg = target: T1, TrzSMsmeg (Mycolicibacterium smegmatis, UniProt A0QUG4); format: biochemical
T1 construct: gene MSMEG_2198

TyzAMtb = target: T2, TyzAMtb (Mycobacterium tuberculosis, UniProt P95232)
T2 construct: gene Rv2336
T2 sequence (P95232 1-322): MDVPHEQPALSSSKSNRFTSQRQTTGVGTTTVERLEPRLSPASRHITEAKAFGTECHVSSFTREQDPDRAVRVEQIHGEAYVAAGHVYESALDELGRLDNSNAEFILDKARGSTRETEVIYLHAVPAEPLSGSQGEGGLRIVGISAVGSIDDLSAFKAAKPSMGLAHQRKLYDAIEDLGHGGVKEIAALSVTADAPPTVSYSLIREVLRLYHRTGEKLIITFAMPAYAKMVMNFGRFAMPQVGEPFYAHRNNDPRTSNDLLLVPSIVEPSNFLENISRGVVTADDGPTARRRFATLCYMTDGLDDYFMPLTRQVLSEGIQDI

T1 sequence (A0QUG4 1-723): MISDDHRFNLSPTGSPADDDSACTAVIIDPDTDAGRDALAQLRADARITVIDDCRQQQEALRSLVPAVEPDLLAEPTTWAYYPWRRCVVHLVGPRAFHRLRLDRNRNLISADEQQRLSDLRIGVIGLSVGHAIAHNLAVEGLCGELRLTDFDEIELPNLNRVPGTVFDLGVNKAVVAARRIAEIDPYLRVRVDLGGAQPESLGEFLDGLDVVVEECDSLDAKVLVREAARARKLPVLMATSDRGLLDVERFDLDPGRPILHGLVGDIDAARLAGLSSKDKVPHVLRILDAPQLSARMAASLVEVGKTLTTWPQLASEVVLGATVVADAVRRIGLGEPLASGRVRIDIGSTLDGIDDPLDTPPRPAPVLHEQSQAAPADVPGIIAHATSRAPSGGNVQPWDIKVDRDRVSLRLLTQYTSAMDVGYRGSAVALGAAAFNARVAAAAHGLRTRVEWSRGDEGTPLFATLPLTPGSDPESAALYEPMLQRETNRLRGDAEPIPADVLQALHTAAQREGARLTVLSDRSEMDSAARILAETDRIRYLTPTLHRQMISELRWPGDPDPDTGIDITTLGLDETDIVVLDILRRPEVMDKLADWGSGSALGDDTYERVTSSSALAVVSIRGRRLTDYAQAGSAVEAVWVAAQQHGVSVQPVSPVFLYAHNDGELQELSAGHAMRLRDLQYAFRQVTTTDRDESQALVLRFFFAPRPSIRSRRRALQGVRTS

Structure (SMILES): Nc1ncnc2c1ncn2[C@@H]1O[C@H](COP(=O)(O)OP(=O)(O)OP(=O)(O)O)[C@@H](O)[C@H]1O [ATP]
- LC-QTOF product detection, coupled with TrzAMtb (TrzSMsmeg): only the N-acyl tryptophan was observed when ATP was omitted from the reaction

Structure (SMILES): CCCC(=O)N[C@@H](Cc1c[nH]c2ccccc12)C(=O)O [C4:0-tryptophan]
- LC-QTOF product detection, coupled with TrzAMtb (TrzSMsmeg): we detected significant amounts of C4:0-tryptophan, produced by TrzAMtb, and C4:0-tryptazolone

Structure (SMILES): CCCCCCCCCCCC(=O)SCCNC(=O)CCNC(=O)[C@H](O)C(C)(C)COP(=O)(O)OP(=O)(O)OC[C@H]1O[C@@H](n2cnc3c(N)ncnc32)[C@H](O)[C@@H]1OP(=O)(O)O [C12:0-CoA]
- LC-QTOF endpoint product detection (TyzAMtb): we detected substantial amounts of C12:0-Tyr, C12:0-tyrazolone
